Test results: publication PMC10169810, “Ligand-induced activation and G protein coupling of prostaglandin F2α receptor” (Nature Communications, 2023)
Where “and” joins values, the source holds several entries; their conditions need not be identical. Equal entries are not always repeated. Entries after “also recorded” stand apart in the source; their conditions may differ.

Experiments:
Assay type in all cases: cell-based
human FP (WT) = molecular target: T1, human FP (WT) (Homo sapiens, UniProt P43088); test: IP-One (IP1) accumulation assay, wild-type FP
T1 construct: Flag; expressed in transfected cells; host or cells: AD293 cells
T1 sequence (P43088 whole entry): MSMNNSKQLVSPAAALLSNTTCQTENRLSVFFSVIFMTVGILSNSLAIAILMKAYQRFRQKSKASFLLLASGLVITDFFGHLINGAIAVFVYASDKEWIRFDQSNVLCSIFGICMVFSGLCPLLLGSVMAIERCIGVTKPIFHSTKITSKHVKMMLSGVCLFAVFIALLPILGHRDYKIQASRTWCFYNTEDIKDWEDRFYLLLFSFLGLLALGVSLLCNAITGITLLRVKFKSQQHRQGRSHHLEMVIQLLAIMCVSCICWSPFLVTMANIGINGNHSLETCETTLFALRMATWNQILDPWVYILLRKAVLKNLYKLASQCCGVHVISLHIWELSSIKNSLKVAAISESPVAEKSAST
Description: (§1) IP-One production was measured using the IP-One HTRF kit (Cisbio)[50]. Briefly, AD293 cells (Agilent) were grown to a density of 400,000–500,000 cells per mL and then […] with separate plasmids at a suitable concentration. The culture was collected by centrifugation 24 h after incubation at 37 °C in 5% CO2 with a Stimulation Buffer. The cell suspension was then dispensed in a white 384-well plate at a volume of 7 μl per well before adding 7 μl of ligands. The mixture was incubated for 1 h at 37 °C. IP-One-d2 and anti-IP-One Cryptate dissolved in Lysis Buffer (3 μl each) were subsequently added and incubated for 15-30 min at room temperature before measurement. Intracellular IP-One measurement was carried out with the IP-One HTRF kit and EnVision multi-plate reader (PerkinElmer) according to the manufacturer’s instructions. Data were normalized to the baseline response of the ligand. pEC50 Emin, and Emax for each curve were calculated by GraphPad Prism 8.0. ∆pEC50 equals pEC50 of agonists to specific Mutant minus pEC50 of agonists to WT. Data are presented as mean values ± SEM; n = 3 independent samples; n.s. no significant; *p < 0.05; **p < 0.01; ***p < 0.001.

FP S33A = molecular target: T2, FP S33A (Homo sapiens, UniProt P43088, S33A); test: IP-One accumulation assay, FP S33A mutant
T2 construct: Flag; expressed in transfected cells; host or cells: AD293 cells
T2 sequence (P43088 whole entry S33A): as the sequence (P43088 whole entry) above, with S33A counted along it
Description: as §1

FP H81A = molecular target: T3, FP H81A (Homo sapiens, UniProt P43088, H81A); test: IP-One accumulation assay, FP H81A mutant; settings: H81 mutated to alanine vs WT FP
T3 construct: Flag; expressed in transfected cells; host or cells: AD293 cells
T3 sequence (P43088 whole entry H81A): as the sequence (P43088 whole entry) above, with H81A counted along it
Description: as §1

FP Y92A = molecular target: T4, FP Y92A (Homo sapiens, UniProt P43088, Y92A); test: IP-One accumulation assay, FP Y92A mutant; settings: Y92 mutant (alanine) vs WT FP
T4 construct: Flag; expressed in transfected cells; host or cells: AD293 cells
T4 sequence (P43088 whole entry Y92A): as the sequence (P43088 whole entry) above, with Y92A counted along it
Description: as §1

FP M115A = molecular target: T5, FP M115A (Homo sapiens, UniProt P43088, M115A); test: IP-One accumulation assay, FP M115A mutant
T5 construct: Flag; expressed in transfected cells; host or cells: AD293 cells
T5 sequence (P43088 whole entry M115A): as the sequence (P43088 whole entry) above, with M115A counted along it
Description: as §1

FP S118A = molecular target: T6, FP S118A (Homo sapiens, UniProt P43088, S118A); test: IP-One accumulation assay, FP S118A mutant; settings: S118A mutant vs WT FP; IP1 accumulation, AD293 cells; single values of n = 3 independent samples
T6 construct: Flag; expressed in transfected cells; host or cells: AD293 cells
T6 sequence (P43088 whole entry S118A): as the sequence (P43088 whole entry) above, with S118A counted along it
Description: as §1

FP T184A = molecular target: T7, FP T184A (Homo sapiens, UniProt P43088, T184A); test: IP-One accumulation assay, FP T184A mutant; settings: T184 mutant (alanine) vs WT FP
T7 construct: Flag; expressed in transfected cells; host or cells: AD293 cells
T7 sequence (P43088 whole entry T184A): as the sequence (P43088 whole entry) above, with T184A counted along it
Description: as §1

FP F205A = molecular target: T8, FP F205A (Homo sapiens, UniProt P43088, F205A); test: IP-One accumulation assay, FP F205A mutant; settings: F205 to alanine vs WT FP
T8 construct: Flag; expressed in transfected cells; host or cells: AD293 cells
T8 sequence (P43088 whole entry F205A): as the sequence (P43088 whole entry) above, with F205A counted along it
Description: as §1

FP W262A = molecular target: T9, FP W262A (Homo sapiens, UniProt P43088, W262A); test: IP-One accumulation assay, FP W262A mutant; settings: W262 to alanine vs WT FP
T9 construct: Flag; expressed in transfected cells; host or cells: AD293 cells
T9 sequence (P43088 whole entry W262A): as the sequence (P43088 whole entry) above, with W262A counted along it
Description: as §1

FP F265A = molecular target: T10, FP F265A (Homo sapiens, UniProt P43088, F265A); test: IP-One accumulation assay, FP F265A mutant
T10 construct: Flag; expressed in transfected cells; host or cells: AD293 cells
T10 sequence (P43088 whole entry F265A): as the sequence (P43088 whole entry) above, with F265A counted along it
Description: as §1

FP I290A = molecular target: T11, FP I290A (Homo sapiens, UniProt P43088); test: IP-One accumulation assay, FP I290A mutant; settings: L290 to alanine vs WT FP
T11 construct: Flag; expressed in transfected cells; host or cells: AD293 cells
T11 sequence (P43088 whole entry L290A): as the sequence (P43088 whole entry) above, with L290A counted along it
Description: as §1

FP R291A = molecular target: T12, FP R291A (Homo sapiens, UniProt P43088, R291A); test: IP-One accumulation assay, FP R291A mutant
T12 construct: Flag; expressed in transfected cells; host or cells: AD293 cells
T12 sequence (P43088 whole entry R291A): as the sequence (P43088 whole entry) above, with R291A counted along it
Description: as §1

FP T294A = molecular target: T13, FP T294A (Homo sapiens, UniProt P43088, T294A); test: IP-One accumulation assay, FP T294A mutant
T13 construct: Flag; expressed in transfected cells; host or cells: AD293 cells
T13 sequence (P43088 whole entry T294A): as the sequence (P43088 whole entry) above, with T294A counted along it
Description: as §1

FP Q297A = molecular target: T14, FP Q297A (Homo sapiens, UniProt P43088, Q297A); test: IP-One accumulation assay, FP Q297A mutant; settings: Q297A mutant vs WT FP; IP1 accumulation, AD293 cells; single values of n = 3 independent samples
T14 construct: Flag; expressed in transfected cells; host or cells: AD293 cells
T14 sequence (P43088 whole entry Q297A): as the sequence (P43088 whole entry) above, with Q297A counted along it
Description: as §1

FP L123A = molecular target: T15, FP L123A (Homo sapiens, UniProt P43088, L123A); test: IP-One accumulation assay, FP L123A mutant; settings: L123A mutant vs WT FP
T15 construct: Flag; expressed in transfected cells; host or cells: AD293 cells
T15 sequence (P43088 whole entry L123A): as the sequence (P43088 whole entry) above, with L123A counted along it
Description: as §1

FP L213A = molecular target: T16, FP L213A (Homo sapiens, UniProt P43088, L213A); test: IP-One accumulation assay, FP L213A mutant; settings: L213A mutant vs WT FP
T16 construct: Flag; expressed in transfected cells; host or cells: AD293 cells
T16 sequence (P43088 whole entry L213A): as the sequence (P43088 whole entry) above, with L213A counted along it
Description: as §1

FP mutant of E132 = molecular target: T17, FP mutant of E132 (Homo sapiens, UniProt P43088, E132A); test: IP-One accumulation assay, FP E132 mutant; settings: E132 mutant vs WT FP
T17 construct: Flag; expressed in transfected cells; host or cells: AD293 cells
T17 sequence (P43088 whole entry E132A): as the sequence (P43088 whole entry) above, with E132A counted along it
Description: as §1

FP R133A = molecular target: T18, FP R133A (Homo sapiens, UniProt P43088, R133A); test: IP-One accumulation assay, FP R133A mutant; settings: for IP1 accumulation response to PGF2α (dose-response source data): FP R133A, replicate values
T18 construct: expressed in transfected cells; host or cells: AD293 cells
T18 sequence (P43088 whole entry R133A): as the sequence (P43088 whole entry) above, with R133A counted along it
Description: as §1

FP mutant of C134 = molecular target: T19, FP mutant of C134 (Homo sapiens, UniProt P43088, C134A); test: IP-One accumulation assay, FP C134 mutant; settings: C134 mutant vs WT FP
T19 construct: expressed in transfected cells; host or cells: AD293 cells
T19 sequence (P43088 whole entry C134A): as the sequence (P43088 whole entry) above, with C134A counted along it
Description: as §1

FP Q250A = molecular target: T20, FP Q250A (Homo sapiens, UniProt P43088, Q250A); test: IP-One accumulation assay, FP Q250A mutant; settings: Q250A mutant vs WT FP
T20 construct: expressed in transfected cells; host or cells: AD293 cells
T20 sequence (P43088 whole entry Q250A): as the sequence (P43088 whole entry) above, with Q250A counted along it
Description: as §1

FP R308A = molecular target: T21, FP R308A (Homo sapiens, UniProt P43088, R308A); test: IP-One accumulation assay, FP R308A mutant; settings: R308A mutant vs WT FP
T21 construct: expressed in transfected cells; host or cells: AD293 cells
T21 sequence (P43088 whole entry R308A): as the sequence (P43088 whole entry) above, with R308A counted along it
Description: as §1

SMILES: CCCCC[C@H](O)/C=C/[C@@H]1[C@@H](C/C=C\CCCC(=O)O)[C@@H](O)C[C@H]1O [PGF2α, Prostaglandin F2α]
- IP1 accumulation response to PGF2α (dose-response source data) (human FP (WT); log[PGF2α] -5, replicate values): 101.79 and 97.30 and 100.89
- IP1 accumulation response to PGF2α (dose-response source data) (human FP (WT); log[PGF2α] -6, replicate values): 98.67 and 93.94 and 92.75
- IP1 accumulation response to PGF2α (dose-response source data) (human FP (WT); log[PGF2α] -7, replicate values): 95.13 and 96.40 and 98.46
- IP1 accumulation response to PGF2α (dose-response source data) (human FP (WT); log[PGF2α] -8, replicate values): 91.30 and 99.44 and 87.48
- IP1 accumulation response to PGF2α (dose-response source data) (human FP (WT); log[PGF2α] -9, replicate values): 86.14 and 76.33 and 80.44
- IP1 accumulation response to PGF2α (dose-response source data) (human FP (WT); log[PGF2α] -10, replicate values): 72.71 and 62.76 and 60.52
- IP1 accumulation response to PGF2α (dose-response source data) (human FP (WT); log[PGF2α] -11, replicate values): 49.52 and 56.92 and 52.06
- IP1 accumulation response to PGF2α (dose-response source data) (human FP (WT); log[PGF2α] -14, replicate values): 42.81 and 48.67 and 43.43
- ∆pEC50 (pEC50 of agonist to mutant minus pEC50 to WT) (FP S33A; S33A mutant vs WT FP, IP1 accumulation, AD293 cells, single values of n = 3 independent samples): -1.0 and -1.1 and -0.8
- effect of mutation on agonist affinity / potency (in words) (FP S33A; S33 to alanine vs WT FP): significantly impaired the affinity
- reduction of activity to FP by mutation (FP H81A): over 1000 folds
- effect of mutation on agonist activity / potency (in words) (FP Y92A): decreased activity
- ∆pEC50 (pEC50 of agonist to mutant minus pEC50 to WT) (FP M115A; M115A mutant vs WT FP, IP1 accumulation, AD293 cells, single values of n = 3 independent samples): -2.0 and -2.1 and -1.9
- decrease of affinity by mutation (FP M115A; M115 mutated to alanine vs WT FP): approximately 100 fold
- ∆pEC50 (pEC50 of agonist to mutant minus pEC50 to WT) (FP S118A): 0.3 and 0.0 and 0.2
- effect of mutation on agonist activity / potency (in words) (FP T184A): decreased activity
- effect of mutation on agonist affinity (in words) (FP F205A): significantly impaired the affinity
- effect of mutation on agonist affinity / induced activation (in words) (FP W262A): significantly impaired the affinity
- ∆pEC50 (pEC50 of agonist to mutant minus pEC50 to WT) (FP F265A; F265A mutant vs WT FP, IP1 accumulation, AD293 cells, single values of n = 3 independent samples): -2.8 and -2.7
- effect of mutation on agonist affinity (in words) (FP F265A; F265 to alanine vs WT FP): significantly impaired the affinity
- effect of mutation on agonist affinity (in words) (FP I290A): significantly impaired the affinity
- ∆pEC50 (pEC50 of agonist to mutant minus pEC50 to WT) (FP R291A; R291A mutant vs WT FP, IP1 accumulation, AD293 cells, single values of n = 3 independent samples): -2.6 and -2.4 and -2.5
- effect of mutation on agonist activity / potency (in words) (FP R291A; R291 mutant (alanine) vs WT FP): decreased activity
- ∆pEC50 (pEC50 of agonist to mutant minus pEC50 to WT) (FP T294A; T294A mutant vs WT FP, IP1 accumulation, AD293 cells, single values of n = 3 independent samples): -2.2 and -2.3 and -2.0
- effect of mutation on agonist affinity / potency (in words) (FP T294A; T294 to alanine vs WT FP): significantly impaired the affinity
- ∆pEC50 (pEC50 of agonist to mutant minus pEC50 to WT) (FP Q297A): -1.9 and -1.8
- effect of mutation on agonist potency (in words) (FP L123A): decreased potency
- effect of mutation on agonist potency (in words) (FP L213A): decreased potency
- effect of mutation on agonist activity (in words) (FP mutant of E132): decreased PGF2α activity
- IP1 accumulation response to PGF2α (dose-response source data) (FP R133A; log[PGF2α] -5): 21.57 and 17.44 and 18.01
- IP1 accumulation response to PGF2α (dose-response source data) (FP R133A; log[PGF2α] -6): 20.73 and 14.37 and 13.23
- IP1 accumulation response to PGF2α (dose-response source data) (FP R133A; log[PGF2α] -7): 14.89 and 14.23 and 16.03
- IP1 accumulation response to PGF2α (dose-response source data) (FP R133A; log[PGF2α] -8): 16.86 and 14.19 and 10.91
- IP1 accumulation response to PGF2α (dose-response source data) (FP R133A; log[PGF2α] -9): 17.57 and 19.43 and 13.59
- IP1 accumulation response to PGF2α (dose-response source data) (FP R133A; log[PGF2α] -10): 9.93 and 11.01 and 11.54
- IP1 accumulation response to PGF2α (dose-response source data) (FP R133A; log[PGF2α] -11): 5.43 and 6.41 and 3.41
- IP1 accumulation response to PGF2α (dose-response source data) (FP R133A; log[PGF2α] -14): 0.27 and 6.69 and 6.06
- effect of mutation on agonist activity (in words) (FP R133A; R133 / R133A mutant vs WT FP): decreased PGF2α activity; also recorded: loss of PGF2α activity
- effect of mutation on agonist activity (in words) (FP mutant of C134): decreased PGF2α activity
- effect of mutation on agonist activity (in words) (FP Q250A): loss of PGF2α activity
- effect of mutation on agonist activity (in words) (FP R308A): loss of PGF2α activity
